# Reference: patent US20200131123A1, “INDOLE-FORMAMIDE DERIVATIVE, PREPARATION METHOD THEREFOR AND USE THEREOF IN MEDICINE” (Jiangsu Hengrui Medicine Co., Ltd., priority 2017, published 2020)
# Read-outs that look alike come from different tables or passages of the source.
# How the values were obtained:
# RORγ LBD = target: T1, RORγ LBD (Homo sapiens, UniProt P51449); experiment: LanthaScreen TR-FRET RORγ co-activation system, effect on in vitro activity of RORγ; assay type: biochemical; details: for EC50: TR-FRET RORγ co-activation, for agonist the value refers to EC50, read-out: EC50/IC50 a (nM): EC50 (agonist); for Type: agonist or inverse agonist of RORγ
# T1 construct: RORγ LBD was diluted with the complete buffer D to a concentration of 1 ng/μL; GST; purchased AB Vector
# T1 sequence (P51449 269-508 limits assumed): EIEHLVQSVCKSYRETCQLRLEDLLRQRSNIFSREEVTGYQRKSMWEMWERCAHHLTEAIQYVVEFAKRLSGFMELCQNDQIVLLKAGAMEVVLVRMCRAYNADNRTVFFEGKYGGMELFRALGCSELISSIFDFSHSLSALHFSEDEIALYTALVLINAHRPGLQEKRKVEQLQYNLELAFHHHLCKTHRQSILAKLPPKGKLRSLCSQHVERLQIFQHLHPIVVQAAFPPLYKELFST
# Protocol: 1. LanthaScreen® TR-FRET RORγ co-activation system (Life Technologies)
# A complete buffer D (complete TR-FRET Coregulator) (Life Technologies) was formulated first, containing a final concentration of 5 mM DTT. The final concentration of DMSO was 2%. The test compound was serially diluted to 2× final concentration in the complete buffer D containing 2% of DMSO, and the maximum dose was […]. The test compound was added to the test wells of a 384-well plate (PerkinElmer) in 10 μl/well. Two parallel control wells were set up for each test compound at the same concentration. 4×RORγ LBD (AB Vector) was formulated. RORγ LBD was diluted with the complete buffer D to a concentration of 1 ng/μL, and added to the test wells of 384-well plate in 5 μl/well. The negative control well was 5 μL of complete buffer D without RORγ LBD. A mixed solution comprising 0.6 μM of fluorescein-D22 (4×) and 8 nM of terbium(Tb)-labeled anti-GST antibody (4×) (Life Technologies) was formulated with the complete buffer D, and 5 μL of the mixed solution was added to the 384-well plate. The total reaction system was 20 μL. The 384-well plate was gently shaken on a shaker, and incubated at room temperature in the dark for 2-4 hours.
# Fluorescence readings were determined with Tecan Infinite M1000. The logarithmic curve of the ratio of the emission wavelength of 520 nm/495 nm to the concentration of the compound was plotted by GraphPad Prism 6.0 software. EC50/IC50 value of the test compound was calculated.
# IL-17A = IL-17A enzyme-linked immune quantitative assay in cytostim-activated human PBMC; assay type: cell-based; details: 72 h; IL-17A in supernatant of human PBMC, 3 days after drug treatment
# Protocol: 1. Human peripheral blood mononuclear cells (PBMC) (Zenbio)
# 5. Human IL-17 enzyme-linked immunosorbent kit (R&D System)
# Frozen human peripheral blood mononuclear cells (PBMC) were rapidly resuscitated in pre-warmed lymphocyte culture medium, and centrifuged at 1000 rpm for 10 min. The cell culture supernatant was removed. The cells were gently suspended in TexMACS medium and counted. The T cell activation reagent cytostim (10 μl/ml) was added in proportion to the cell suspension. Then, the cells were seeded in a 96-well cell culture plate at a density of 1×10^5 peripheral blood mononuclear cells/well. The test compounds were diluted in gradient with TexMACS medium, and added respectively to the test wells, with 2-3 parallel wells per group. A negative control well containing only cells without cytostim was provided to obtain the background reading. The cell culture plate was placed in a incubator at 5% carbon dioxide, 37° C. to incubate for 3 days. The cell culture supernatant was collected 3 days after drug treatment, and centrifuged to remove the suspension. Then, IL-17A in the supernatant was quantified with IL-17A enzyme-linked immunosorbent kit. EC50 values of the test compounds were calculated with GraphPad Prism 6.0.
# [1] = for agonist the value refers to Emax(%), read-out: Emax(%)/maximum inhibition rate b: Emax(%) (agonist)
EC50 (RORγ LBD),Type (RORγ LBD),Emax (RORγ LBD; [1]),EC50 (IL-17A),IC50 (RORγ LBD),Emax (RORγ LBD; read-out: Emax(%)/maximum inhibition rate b: maximum inhibition rate (inverse agonist)),SMILES,Emax (IL-17A)
–,–,–,169 nM,–,–,"CCS(=O)(=O)c1ccc([C@@H](CO)NC(=O)c2ccc3c(c2)cc(Cc2ccc(Cl)cc2C(F)(F)F)n3CCF)cc1 [Example 3, (S)-2-(4-Chloro-2-(trifluoromethyl)benzyl)-N-(1-(4-(ethylsulfonyl)phenyl)-2-hydroxyethyl)-1-(2-fluoroethyl)-1H-indole-5-carboxamide]",136%
334 nM,Agonist,110%,–,–,–,"CCS(=O)(=O)c1ccc([C@H](CO)NC(=O)c2cc3cc(Cc4ccc(Cl)cc4C(F)(F)F)n(CCF)c3cc2F)cc1 [Example 5, (R)-2-(4-Chloro-2-(trifluoromethyl)benzyl)-N-(1-(4-(ethylsulfonyl)phenyl)-2-hydroxyethyl)-6-fluoro-1-(2-fluoroethyl)-1H-indole-5-carboxamide]",–
22 nM,–,94%,276 nM,–,–,"CCS(=O)(=O)c1ccc([C@H](CO)NC(=O)c2ccc3c(c2)cc(Cc2ccc(Cl)cc2C(F)(F)F)n3C2CC2)cc1 [Example 11, (R)-2-(4-Chloro-2-(trifluoromethyl)benzyl)-1-cyclopropyl-N-(1-(4-(ethylsulfonyl)phenyl)-2-hydroxyethyl)-1H-indole-5-carboxamide]",72%
13 nM,Agonist,89%,25 nM,–,–,"O=C(N[C@@H](CO)c1ccc(S(=O)(=O)NC2CC2)cc1)c1ccc2c(c1)cc(Cc1ccc(Cl)cc1C(F)(F)F)n2CCF [Example 12, (R)-2-(4-Chloro-2-(trifluoromethyl)benzyl)-N-(1-(4-(N-cyclopropylsulfamoyl)phenyl)-2-hydroxyethyl)-1-(2-fluoroethyl)-1H-indole-5-carboxamide]",71%
69 nM,Agonist,96%,27 nM,–,–,"O=C(N[C@@H](CO)c1ccc(S(=O)(=O)CC2CC2)cc1)c1ccc2c(c1)cc(Cc1ccc(Cl)cc1C(F)(F)F)n2CCF [Example 13, (R)-2-(4-Chloro-2-(trifluoromethyl)benzyl)-N-(1-(4-((cyclopropylmethyl)sulfonyl)phenyl)-2-hydroxyethyl)-1-(2-fluoroethyl)-1H-indole-5-carboxamide]",65%
138 nM,Agonist,99%,42 nM,–,–,"O=C(N[C@@H](CO)c1ccc(S(=O)(=O)CC2CC2)cc1)c1ccc2c(c1)cc(Cc1ccc(F)cc1C(F)(F)F)n2CCF [Example 14, (R)—N-(1-(4-((Cyclopropylmethyl)sulfonyl)phenyl)-2-hydroxyethyl)-2-(4-fluoro-2-(trifluoromethyl)benzyl)-1-(2-fluoroethyl)-1H-indole-5-carboxamide]",99%
124 nM,Agonist,109%,–,–,–,"O=C(N[C@@H](CO)c1ccc(S(=O)(=O)C2CC2)cc1)c1ccc2c(c1)cc(Cc1ccc(Cl)cc1C(F)(F)F)n2CCF [Example 15, (R)-2-(4-Chloro-2-(trifluoromethyl)benzyl)-N-(1-(4-(cyclopropylsulfonyl)phenyl)-2-hydroxyethyl)-1-(2-fluoroethyl)-1H-indole-5-carboxamide]",–
18 nM,Agonist,97%,8 nM,–,–,"CCS(=O)(=O)c1ccc([C@H](COC)NC(=O)c2ccc3c(c2)cc(Cc2ccc(Cl)cc2C(F)(F)F)n3CCF)cc1 [Example 16, (R)-2-(4-Chloro-2-(trifluoromethyl)benzyl)-N-(1-(4-(ethylsulfonyl)phenyl)-2-methoxyethyl)-1-(2-fluoroethyl)-1H-indole-5-carboxamide]",99%

# Further lines, the compound ahead of its results:
SMILES,EC50 (RORγ LBD),Type (RORγ LBD),Emax (RORγ LBD; [1]),EC50 (IL-17A),IC50 (RORγ LBD),Emax (RORγ LBD; read-out: Emax(%)/maximum inhibition rate b: maximum inhibition rate (inverse agonist)),Emax (IL-17A)
"CCS(=O)(=O)c1ccc(C(CO)NC(=O)c2ccc3c(c2)cc(Cc2ccccc2C(F)(F)F)n3C(C)C)cc1 (stereo not shown) [Example 1, N-(1-(4-(Ethylsulfonyl)phenyl)-2-hydroxyethyl)-1-isopropyl-2-(2-(trifluoromethyl)benzyl)-1H-indole-5-carboxamide]",64 nM,Agonist,94%,–,–,–,–
"CCS(=O)(=O)c1ccc(C(CO)NC(=O)c2ccc3c(c2)cc(Cc2ccc(Cl)cc2C(F)(F)F)n3CCF)cc1 (stereo not shown) [Example 2, 2-(4-Chloro-2-(trifluoromethyl)benzyl)-N-(1-(4-(ethylsulfonyl)phenyl)-2-hydroxyethyl)-1-(2-fluoroethyl)-1H-indole-5-carboxamide]",–,–,–,90 nM,–,–,82%
"CCS(=O)(=O)c1ccc([C@H](CO)NC(=O)c2cc3cc(Cc4ccc(Cl)cc4C(F)(F)F)n(C4CC4)c3cc2F)cc1 [Example 6, (R)-2-(4-Chloro-2-(trifluoromethyl)benzyl)-1-cyclopropyl-N-(1-(4-(ethylsulfonyl)phenyl)-2-hydroxyethyl)-6-fluoro-1H-indole-5-carboxamide]",79 nM,Agonist,105%,–,–,–,–
"CCS(=O)(=O)c1ccc([C@H](CO)NC(=O)c2ccc3c(c2)cc(CN2CCOCC2C(F)(F)F)n3CCF)cc1 (stereo partly drawn) [Example 7, N—((R)-1-(4-(Ethylsulfonyl)phenyl)-2-hydroxyethyl)-1-(2-fluoroethyl)-2-((3-(trifluoromethyl)morpholino)methyl)-1H-indole-5-carboxamide]",80 nM,Agonist,84%,–,–,–,–
"CCS(=O)(=O)c1ccc([C@H](CO)NC(=O)c2ccc3c(c2)cc(Cc2ccc(C(F)(F)F)cc2)n3CCF)cc1 [Example 17, (R)-2-(4-(trifluoromethyl)benzyl)-N-(1-(4-(ethylsulfonyl)phenyl)-2-hydroxyethyl)-1-(2-fluoroethyl)-1H-indole-5-carboxamide]",–,Inverse agonist,–,–,29 nM,67%,–
